According to patent US20050192279A1, “Pyridazinones as antagonists of alpha4 integrins” (priority 2004, published 2005):

Experiments:
α4β1 = target: T1, α4β1 (Homo sapiens, UniProt P05556+P13612); assay: Ramos Cell Adhesion Assay (α4β1 Mediated Adhesion/VCAM-1); format: cell-based; details: Ramos cell adhesion to hVCAM-1; read-out: α4β1 IC50
T1 construct: Ramos Cell Adhesion Assay (α4β1 Mediated Adhesion/VCAM-1); endogenous in cells; host or cells: Ramos cells
Procedure: Ramos Cell Adhesion Assay (α4β1 Mediated Adhesion/VCAM-1)
Immulon 96 well plates (Dynex) were coated with 100 μL recombinant hVCAM-1 at 4.0 μg/mL in 0.05 M NaCO3 buffer pH 9.0 overnight at 4° C. (R&D Systems). Plates were washed 2 times in PBS with 1% BSA and blocked for 1 h @ room temperature in this buffer. PBS was removed and compounds to be tested (50 μL) were added at 2× concentration. Ramos cells, (50 μL at 2×10^6/mL) labeled with 5 μM Calcein AM (Molecular Probes) for 1 h at 37° C., were added to each well and allowed to adhere for 1 h at room temperature. Plates were washed 4× in PBS+1% BSA and cells were lysed for 15 minutes in 100 μL of 1 M Tris pH 8.0 with 1% SDS.

human α4β7 integrin = target: T2, human α4β7 integrin (Homo sapiens, UniProt P13612+P26010); assay: α4β7-K562 Cell Adhesion Assay (α4β7 Mediated Adhesion/MAdCAM-1); format: cell-based; details: α4β7-K562 cell adhesion to hMAdCAM-1; read-out: α4β7 IC50
T2 construct: expressed in transfected cells; host or cells: K562 cells, stably transfected
T2 sequence (P13612 34-1032): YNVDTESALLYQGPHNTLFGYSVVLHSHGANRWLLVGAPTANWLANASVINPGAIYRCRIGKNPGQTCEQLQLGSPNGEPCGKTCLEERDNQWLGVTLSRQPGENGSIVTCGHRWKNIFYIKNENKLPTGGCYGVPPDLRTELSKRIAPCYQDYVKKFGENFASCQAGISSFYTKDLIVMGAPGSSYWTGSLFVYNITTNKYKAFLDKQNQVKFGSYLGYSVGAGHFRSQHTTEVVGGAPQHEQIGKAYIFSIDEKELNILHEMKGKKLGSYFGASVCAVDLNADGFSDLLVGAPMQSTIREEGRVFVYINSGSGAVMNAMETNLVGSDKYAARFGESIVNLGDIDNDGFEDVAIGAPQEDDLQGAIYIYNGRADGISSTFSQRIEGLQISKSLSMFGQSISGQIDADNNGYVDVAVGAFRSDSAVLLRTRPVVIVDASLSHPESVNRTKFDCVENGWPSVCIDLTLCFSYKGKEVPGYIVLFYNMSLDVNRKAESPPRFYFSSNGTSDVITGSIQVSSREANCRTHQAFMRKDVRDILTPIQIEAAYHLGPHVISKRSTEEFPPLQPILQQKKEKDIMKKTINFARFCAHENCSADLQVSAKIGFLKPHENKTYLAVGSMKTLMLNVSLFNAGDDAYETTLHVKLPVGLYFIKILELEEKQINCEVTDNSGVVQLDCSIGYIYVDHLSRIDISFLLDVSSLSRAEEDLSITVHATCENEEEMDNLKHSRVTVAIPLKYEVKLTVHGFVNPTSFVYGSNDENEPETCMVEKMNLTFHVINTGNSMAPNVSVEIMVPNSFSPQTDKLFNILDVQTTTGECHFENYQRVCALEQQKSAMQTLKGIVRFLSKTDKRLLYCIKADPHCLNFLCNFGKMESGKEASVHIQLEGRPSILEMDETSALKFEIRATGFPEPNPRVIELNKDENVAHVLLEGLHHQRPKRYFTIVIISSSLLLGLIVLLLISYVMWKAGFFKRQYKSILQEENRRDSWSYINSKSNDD
T2 sequence (P26010 20-798): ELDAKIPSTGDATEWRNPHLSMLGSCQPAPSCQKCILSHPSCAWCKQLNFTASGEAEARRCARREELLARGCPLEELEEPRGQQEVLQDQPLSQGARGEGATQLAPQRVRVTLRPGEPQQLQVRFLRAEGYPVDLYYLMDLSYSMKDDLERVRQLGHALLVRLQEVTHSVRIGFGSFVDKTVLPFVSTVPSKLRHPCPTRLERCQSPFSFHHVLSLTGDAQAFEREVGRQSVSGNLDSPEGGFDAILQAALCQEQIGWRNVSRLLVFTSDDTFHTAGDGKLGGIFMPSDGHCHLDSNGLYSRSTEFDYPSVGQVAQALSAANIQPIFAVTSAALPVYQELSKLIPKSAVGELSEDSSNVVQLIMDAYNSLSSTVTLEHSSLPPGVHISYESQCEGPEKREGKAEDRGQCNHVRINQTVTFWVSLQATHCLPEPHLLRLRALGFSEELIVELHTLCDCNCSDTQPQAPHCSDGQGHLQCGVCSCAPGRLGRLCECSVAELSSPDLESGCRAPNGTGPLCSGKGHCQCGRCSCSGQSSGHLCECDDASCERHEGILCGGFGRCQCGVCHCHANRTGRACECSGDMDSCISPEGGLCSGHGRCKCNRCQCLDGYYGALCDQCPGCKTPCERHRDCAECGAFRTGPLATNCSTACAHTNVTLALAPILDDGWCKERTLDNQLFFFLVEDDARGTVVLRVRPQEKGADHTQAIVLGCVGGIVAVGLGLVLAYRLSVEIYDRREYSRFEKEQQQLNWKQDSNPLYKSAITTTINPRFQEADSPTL
Procedure: α4β7-K562 Cell Adhesion Assay (α4β7 Mediated Adhesion/MAdCAM-1)
M2 anti-FLAG Antibody Coated 96-well plates (Sigma) were coated for 1 hour at 4° C. with 2-8 μl/well recombinant FLAG-hMAdCAM-1 contained in 100 μL of Dulbecco's PBS, pH 7.4, with 1% BSA and 1 mM Mn ^+2 (PBS-BSA-Mn). Plates were washed once with PBS-BSA-Mn. Buffer was removed and compounds to be tested (50 μL) were added at 2× concentration. Stably transfected K562 cells expressing human α4β7 integrin, (50 μL at 2×10^6/mL) that had been labeled with 100 μg/ml carboxymethyl fluorescein diacetate succinimidyl ester (CFDA-SE; Molecular Probes) for 15 min at 37° C. were added to each well and allowed to adhere for 1 h at room temperature. Plates were washed 4× in PBS-BSA-Mn and then cells were lysed for 2 minutes by addtion of 100 μL of PBS without Ca, Mg supplemented with 0.1 M NaOH.

T1 sequence (P05556 21-798, one chain of several): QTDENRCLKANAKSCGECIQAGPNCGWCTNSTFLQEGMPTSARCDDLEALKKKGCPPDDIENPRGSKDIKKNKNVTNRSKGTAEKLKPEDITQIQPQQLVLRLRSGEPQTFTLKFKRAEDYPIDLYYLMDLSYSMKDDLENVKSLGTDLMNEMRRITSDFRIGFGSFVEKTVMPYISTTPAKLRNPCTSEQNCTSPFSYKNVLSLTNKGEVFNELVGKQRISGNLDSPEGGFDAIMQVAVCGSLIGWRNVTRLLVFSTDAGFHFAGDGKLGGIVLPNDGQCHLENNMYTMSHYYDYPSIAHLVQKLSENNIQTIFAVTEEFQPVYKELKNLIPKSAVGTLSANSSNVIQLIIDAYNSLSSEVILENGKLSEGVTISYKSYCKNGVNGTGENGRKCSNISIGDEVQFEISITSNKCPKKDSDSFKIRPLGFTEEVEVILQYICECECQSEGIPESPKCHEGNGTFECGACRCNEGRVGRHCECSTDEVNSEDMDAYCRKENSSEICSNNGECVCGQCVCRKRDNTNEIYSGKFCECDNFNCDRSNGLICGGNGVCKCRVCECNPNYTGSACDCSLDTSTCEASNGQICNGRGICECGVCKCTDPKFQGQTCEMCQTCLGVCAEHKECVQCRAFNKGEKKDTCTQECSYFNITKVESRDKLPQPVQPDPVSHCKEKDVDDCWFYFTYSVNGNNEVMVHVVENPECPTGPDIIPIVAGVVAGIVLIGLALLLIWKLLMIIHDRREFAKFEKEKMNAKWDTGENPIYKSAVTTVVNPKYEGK

| SMILES | IC50 (α4β1) [nM] | IC50 (human α4β7 integrin) [nM] |
| --- | --- | --- |
| COc1cnn(C)c(=O)c1-c1ccc(C[C@H](NC(=O)C(C(C)C)n2c(C)ccc2C)C(=O)O)cc1 (mixture of isomers) [Cpd 33, 2-[2(2,5-Dimethyl-pyrrol-1-yl)-3-methyl-butyrylamino]-3-[4-(5-methoxy-2-methyl-3-oxo-2,3-dihydro-pyridazin-4-yl)-phenyl]-propionic acid] | 2400 | 7 |
| COc1cnn(C)c(=O)c1-c1ccc(C[C@H](NC(=O)C(c2ccccc2)C(C)C)C(=O)O)cc1 (mixture of isomers) [Cpd 57] | 1220 | 18 |
| COc1cnn(C)c(=O)c1-c1ccc(CC(NC(=O)C(NC(=O)OC(C)(C)C)C(C)C)C(=O)O)cc1 (mixture of isomers) [Cpd 58] | > 5000 | 18 |
| COc1cnn(C)c(=O)c1-c1ccc(C[C@H](NC(=O)C(NS(=O)(=O)c2ccccc2[N+](=O)[O-])C(C)C)C(=O)O)cc1 (mixture of isomers) [Cpd 77] | 240 | 36 |
| COc1cnn(C)c(=O)c1-c1ccc(CC(NC(=O)C2CCCN2)C(=O)O)cc1 (mixture of isomers) [Cpd 166] | > 5000 | 478 |
| COc1cnn(C)c(=O)c1-c1ccc(CC(NC(=O)C2CCCN2C(=O)OC(C)(C)C)C(=O)O)cc1 (mixture of isomers) [Cpd 195] | > 5000 | 1280 |
| CNC(C(=O)NC(Cc1ccc(-c2c(OC)cnn(C)c2=O)cc1)C(=O)O)C(C)C (single isomer, unassigned) [Cpd 54] | 4020 | 17 |
| CNC(C(=O)NC(Cc1ccc(-c2c(OC)cnn(C)c2=O)cc1)C(=O)O)C(C)C (single isomer, unassigned) [Cpd 123] | > 5000 | 118 |
| CCOC(=O)[C@H](Cc1ccc(-c2c(OC)cnn(C)c2=O)cc1)NC(=O)c1c(Cl)cccc1Cl [Cpd 1] | > 5000 | – |
| COc1cnn(C)c(=O)c1-c1ccc(C[C@H](NC(=O)C2(NC(C)C)CC2)C(=O)O)cc1 [Cpd 3] | > 5000 | – |
| CCOc1cnn(C)c(=O)c1-c1ccc(C[C@H](NC(=O)c2c(Cl)cccc2Cl)C(=O)O)cc1 [Cpd 4] | 168 | 1 |
| Cn1nc2c(c(-c3ccc(C[C@H](NC(=O)c4c(Cl)cccc4Cl)C(=O)O)cc3)c1=O)OCCO2 [Cpd 6, (S)-2-(2,6-Dichloro-benzoylamino)-3-[4-(2-methyl-3-oxo-2,3,6,7-tetrahydro-[1,4]dioxino[2,3-c]pyridazin-4-yl)-phenyl]-propionic acid] | 49 | 1 |
| Cn1ncc(OCCOCCO)c(-c2ccc(C[C@H](NC(=O)c3c(Cl)cccc3Cl)C(=O)O)cc2)c1=O [Cpd 7] | 192 | 2 |
| Cn1ncc(OCCO)c(-c2ccc(C[C@H](NC(=O)c3c(Cl)cccc3Cl)C(=O)O)cc2)c1=O [Cpd 8] | 303 | 2 |
| COc1cnn(C)c(=O)c1-c1ccc(C[C@H](NC(=O)c2c(Cl)c[n+]([O-])cc2Cl)C(=O)O)cc1 [Cpd 9] | 23 | 2 |
| CN1CCC(Oc2cnn(C)c(=O)c2-c2ccc(C[C@H](NC(=O)c3c(Cl)cccc3Cl)C(=O)O)cc2)C1 (stereo partly drawn) [Cpd 12] | 305 | 2 |

| SMILES | IC50 (α4β1) [nM] | IC50 (human α4β7 integrin) [nM] |
| --- | --- | --- |
| Cn1nc2c(c(-c3ccc(C[C@H](NC(=O)c4c(Cl)cccc4Cl)C(=O)O)cc3)c1=O)NCCO2 [Cpd 13, (S)-2-(2,6-Dichloro-benzoylamino)-3-[4-(2-methyl-3-oxo-3,5,6,7-tetrahydro-2H-pyridazino[3,4-b][1,4]oxazin-4-yl)-phenyl]-propionic acid] | 130 | 2 |
| COc1cnn(C)c(=O)c1-c1ccc(C[C@H](NC(=O)[C@@H](C(C)C)N(C)C(=O)Cc2ccsc2)C(=O)O)cc1 [Cpd 19] | 44 | 3 |
| Cn1ncc(N2CCOCC2)c(-c2ccc(C[C@H](NC(=O)c3c(Cl)cccc3Cl)C(=O)O)cc2)c1=O [Cpd 20] | 484 | 3 |
| Cn1ncc(OCCN2CCOCC2)c(-c2ccc(C[C@H](NC(=O)c3c(Cl)cccc3Cl)C(=O)O)cc2)c1=O [Cpd 21] | 65 | 3 |
| O=C(N[C@@H](Cc1ccc(-c2c(OCCN3CCOCC3)cnn(CCO)c2=O)cc1)C(=O)O)c1c(Cl)cccc1Cl [Cpd 22] | 376 | 3 |
| CN1CCC(Oc2cnn(CCO)c(=O)c2-c2ccc(C[C@H](NC(=O)c3c(Cl)cccc3Cl)C(=O)O)cc2)CC1 [Cpd 23] | 248 | 3 |
| CC(C)Oc1cnn(CCO)c(=O)c1-c1ccc(C[C@H](NC(=O)c2c(Cl)cccc2Cl)C(=O)O)cc1 [Cpd 24] | 249 | 4 |
| Cn1ncc(OCc2cccnc2)c(-c2ccc(C[C@H](NC(=O)c3c(Cl)cccc3Cl)C(=O)O)cc2)c1=O [Cpd 25] | 133 | 5 |
| COc1cnn(C)c(=O)c1-c1ccc(C[C@H](NC(=O)[C@H](NC2CCCCC2)C(C)C)C(=O)O)cc1 [Cpd 28] | 2620 | 5 |
| CCn1ncc(N2CCOCC2)c(-c2ccc(C[C@H](NC(=O)c3c(Cl)cccc3Cl)C(=O)O)cc2)c1=O [Cpd 29] | > 1000 | 6 |
| COc1cnn(C)c(=O)c1-c1ccc(C[C@H](NC(=O)c2c(Cl)cccc2Cl)C(=O)OCCN(C)C)cc1 [Cpd 34] | 250 | 8 |
| COc1cnn(C)c(=O)c1-c1ccc(C[C@H](NC(=O)C2(NC(C)C)CC2)C(=O)O)cc1 [Cpd 146] | 218 | – |
| COc1cnn(C2CCCCC2)c(=O)c1-c1ccc(C[C@H](NC(=O)c2c(Cl)cccc2Cl)C(=O)O)cc1 [Cpd 165] | – | 471 |
| COC(=O)N[C@@H](Cc1ccc(-c2c(OC)cnn(C)c2=O)cc1)C(=O)O [Cpd 178] | – | 706 |
| COc1cnn(C)c(=O)c1-c1ccc(C[C@H](NC(=O)OC(C)(C)C)C(=O)O)cc1 [Cpd 183] | – | 805 |
| COc1cnn(C)c(=O)c1-c1ccc(C[C@H](NC(=O)C2(OCc3ccccc3)CC2)C(=O)O)cc1 [Cpd 230] | – | 92 |
